Source: PubChem BioAssay (NCI)
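How tested: cells in 96-well plates exposed to compound for 48 hours at five concentrations. At the GI50, growth is halved. TGI: total growth inhibition.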

Tests used:
Test in all cases: NCI-60 cell line screen, 48 h
[1] = system: LOX IMVI melanoma
[2] = system: CAKI-1 renal
[3] = system: MCF7 breast
[4] = system: DU-145 prostate
[5] = system: SK-OV-3 ovarian
[6] = system: HS 578T breast
[7] = system: HCC-2998 colon
[8] = system: UACC-257 melanoma
[9] = system: SR leukemia
[10] = system: NCI-H522 lung
[11] = system: CCRF-CEM leukemia
[12] = system: SK-MEL-5 melanoma
[13] = system: OVCAR-3 ovarian
[14] = system: T-47D breast
[15] = system: SK-MEL-2 melanoma
[16] = system: SF-268 CNS
[17] = system: BT-549 breast
[18] = system: MDA-MB-435
[19] = system: A498 renal
[20] = system: MDA-MB-231 breast
[21] = system: RXF 393 renal
[22] = system: MOLT-4 leukemia
[23] = system: SK-MEL-28 melanoma
[24] = system: NCI/ADR-RES ovarian
[25] = system: IGROV1 ovarian
[26] = system: OVCAR-5 ovarian
[27] = system: 786-0 renal
[28] = system: K-562 leukemia
[29] = system: ACHN renal
[30] = system: HL-60(TB) leukemia
[31] = system: SNB-75 CNS
[32] = system: M14 melanoma
[33] = system: NCI-H460 lung
[34] = system: SW-620 colon
[35] = system: UACC-62 melanoma
[36] = system: HCT-116 colon
[37] = system: RPMI-8226 leukemia
[38] = system: HOP-92 NSCLC
[39] = system: PC-3 prostate
[40] = system: UO-31 renal
[41] = system: SF-539 CNS
[42] = system: OVCAR-4 ovarian
[43] = system: SNB-19 CNS
[44] = system: EKVX NSCLC
[45] = system: HOP-62 NSCLC
[46] = system: U251 CNS
[47] = system: SF-295 CNS
[48] = system: A549 NSCLC
[49] = system: OVCAR-8 ovarian
[50] = system: NCI-H226 lung
[51] = system: SN12C renal
[52] = system: TK-10 renal
[53] = system: HCT-15 colon
[54] = system: MALME-3M melanoma
[55] = system: KM12 colon
[56] = system: COLO 205 colon
[57] = system: HT29 colon

SMILES: C#C[C@]1(O)CC[C@H]2[C@@H]3CC=C4c5sc(-c6ccc(F)cn6)nc5CC[C@]4(C)[C@H]3CC[C@@]21C
- GI50 [1]: 1.82 µM
- TGI [1]: 3.35 µM
- GI50 [2]: 2.12 µM
- TGI [2]: 6.27 µM
- GI50 [3]: 1.5 µM
- TGI [3]: 3.38 µM
- GI50 [4]: 4.62 µM
- TGI [4]: 18.9 µM
- GI50 [5]: 2.29 µM
- TGI [5]: 5.64 µM
- GI50 [6]: 1.45 µM
- TGI [6]: 5.26 µM
- GI50 [7]: 5.16 µM
- TGI [7]: 17.8 µM
- GI50 [8]: 2.25 µM
- TGI [8]: 6.73 µM
- GI50 [9]: 2.21 µM
- TGI [9]: 8.39 µM
- GI50 [10]: 2.06 µM
- TGI [10]: 5.78 µM
- GI50 [11]: 2.71 µM
- TGI [11]: 33.5 µM
- GI50 [12]: 2.62 µM
- TGI [12]: 7.23 µM
- GI50 [13]: 3.86 µM
- TGI [13]: 72.4 µM
- GI50 [14]: 3.43 µM
- TGI [14]: 16.1 µM
- GI50 [15]: 2.33 µM
- TGI [15]: 6.58 µM
- GI50 [16]: 3.46 µM
- TGI [16]: 18.4 µM
- GI50 [17]: 1.77 µM
- TGI [17]: 5.02 µM
- GI50 [18]: 2.28 µM
- TGI [18]: 6.84 µM
- GI50 [19]: 2.05 µM
- TGI [19]: 4.06 µM
- GI50 [20]: 2.4 µM
- TGI [20]: 7.14 µM
- GI50 [21]: 0.309 µM
- TGI [21]: 0.956 µM
- GI50 [22]: 2.01 µM
- TGI [22]: 8.06 µM
- GI50 [23]: 1.64 µM
- TGI [23]: 3.88 µM
- GI50 [24]: 4.12 µM
- TGI [24]: 23.6 µM
- GI50 [25]: 4.96 µM
- TGI [25]: 20.8 µM
- GI50 [26]: 4.01 µM
- TGI [26]: 14.8 µM
- GI50 [27]: 1.36 µM
- TGI [27]: 3.33 µM
- GI50 [28]: 2.49 µM
- TGI [28]: > 100 µM
- GI50 [29]: 3.43 µM
- TGI [29]: 14 µM
- GI50 [30]: 2.77 µM
- TGI [30]: 10.9 µM
- GI50 [31]: 2.45 µM
- TGI [31]: 15 µM
- GI50 [32]: 2.77 µM
- TGI [32]: 11.7 µM
- GI50 [33]: 3.03 µM
- TGI [33]: 12.5 µM
- GI50 [34]: 2.62 µM
- TGI [34]: 8.01 µM
- GI50 [35]: 2.65 µM
- TGI [35]: 8.53 µM
- GI50 [36]: 1.8 µM
- TGI [36]: 4.3 µM
- GI50 [37]: 0.365 µM
- TGI [37]: 1.72 µM
- GI50 [38]: 2.02 µM
- TGI [38]: 6.83 µM
- GI50 [39]: 1.73 µM
- TGI [39]: 7.64 µM
- GI50 [40]: 2.32 µM
- TGI [40]: 5.62 µM
- GI50 [41]: 1.23 µM
- TGI [41]: 2.88 µM
- GI50 [42]: 4.41 µM
- TGI [42]: 18.5 µM
- GI50 [43]: 2.72 µM
- TGI [43]: 12.7 µM
- GI50 [44]: 2.89 µM
- TGI [44]: 12.9 µM
- GI50 [45]: 2.28 µM
- TGI [45]: 7.25 µM
- GI50 [46]: 1.68 µM
- TGI [46]: 7.05 µM
- GI50 [47]: 1.24 µM
- TGI [47]: 2.96 µM
- GI50 [48]: 3.44 µM
- TGI [48]: 15.1 µM
- GI50 [49]: 3.16 µM
- TGI [49]: 14.3 µM
- GI50 [50]: 2.93 µM
- TGI [50]: 13.1 µM
- GI50 [51]: 4.54 µM
- TGI [51]: 17.5 µM
- GI50 [52]: 5.31 µM
- TGI [52]: 17.3 µM
- GI50 [53]: 1.89 µM
- TGI [53]: 5.11 µM
- GI50 [54]: 3.29 µM
- TGI [54]: 11.7 µM
- GI50 [55]: 3.26 µM
- TGI [55]: 20.8 µM
- GI50 [56]: 2.62 µM
- TGI [56]: 11.1 µM
- GI50 [57]: 2.02 µM
- TGI [57]: 4.6 µM
